From patent publication US12281149B2, “Modulators of G-protein coupled receptors” (priority 2021, dated 2025)
*1 amine or outer side, *2 acyl side, *3 side chain or, on linkers, in order; H or OH if unused. Where a SMILES comes first, the peptide text is derived from it. Side-chain parts run from the residue outwards. [ ]: non-standard residue; d: D form. The star is where a group is joined. Isobutyryl(2-(3-CN-5-F-Ph)) = CC(C)(C(=O)*)c1cc(F)cc(C#N)c1; C20 diacid = O=C(O)CCCCCCCCCCCCCCCCCCC(=O)*; X75 = C[C@@](Cc1nn[nH]n1)(N[*:1])C(=O)[*:2]; X74 = CC(C)(C(=O)*)c1cc(F)cc(C(F)(F)F)c1; γGlu = O=C(O)[C@H](CCC(=O)[*:2])N[*:1]; X70 = CC[C@H](CN[*:1])C(=O)[*:2]; X41 = C[C@H](C(=O)*)c1ccccc1; AEEA = NCCOCCOCC(=O)O; Aib = CC(C)(N)C(=O)O; βAla = NCCC(=O)O

What was measured:
Type in all cases: cell-based
[1] = molecular target: T1, GIP receptor (Homo sapiens, UniProt P48546); test: PathHunter β-arrestin assay, GIP receptor; set-up: host or cells: PathHunter CHO-K1 GIPR β-Arrestin Cell Line; conditions: β-arrestin-2 recruitment, PathHunter CHO-K1 GIPR β-Arrestin Cell Line, 90 min at 37° C.; normalized to GIP; read-out: GIPR β Arrestin EC50
T1 sequence (P48546 22-466): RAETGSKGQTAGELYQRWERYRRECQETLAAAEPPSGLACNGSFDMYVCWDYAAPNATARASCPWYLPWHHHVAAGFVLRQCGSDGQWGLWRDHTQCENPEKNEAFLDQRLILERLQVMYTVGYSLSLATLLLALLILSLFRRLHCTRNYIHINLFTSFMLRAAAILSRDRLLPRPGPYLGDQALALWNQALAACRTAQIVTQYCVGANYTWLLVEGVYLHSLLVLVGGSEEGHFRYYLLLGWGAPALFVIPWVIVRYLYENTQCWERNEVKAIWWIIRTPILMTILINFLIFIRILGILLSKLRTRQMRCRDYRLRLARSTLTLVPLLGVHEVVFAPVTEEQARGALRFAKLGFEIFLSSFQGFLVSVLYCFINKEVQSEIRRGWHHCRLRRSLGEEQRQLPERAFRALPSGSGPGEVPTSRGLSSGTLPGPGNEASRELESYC

[2] = molecular target: T2, GLP-1 receptor (Homo sapiens, UniProt P43220); test: HitHunter cAMP assay, GLP-1 receptor; conditions: for EC50: CHO cells stably expressing human GLP-1 receptor, cAMP accumulation, 30 min, read-out: EC50 GLP-1R; for Emax: CHO cells, cAMP, normalized to maximum signal from GLP-1 (high) and DMSO (low), read-out: Emax GLP-1R
[3] = molecular target: T1, GIP receptor; test: HitHunter cAMP assay, GIP receptor; conditions: for EC50: CHO cells stably expressing GIP receptor, cAMP accumulation, 30 min, read-out: EC50 GIP-1R; for Emax: CHO cells, cAMP, normalized to maximum signal from GIP (high) and DMSO (low), read-out: Emax GIP-1R
[4] = molecular target: T2, GLP-1 receptor; test: PathHunter β-arrestin assay, GLP-1 receptor; set-up: host or cells: PathHunter CHO-K1 GLP1R β-Arrestin Cell Line; conditions: β-arrestin-2 recruitment, PathHunter CHO-K1 GLP1R β-Arrestin Cell Line, 90 min at 37° C.; normalized to GLP-1; read-out: GLP-1R β Arrestin EC50

T2 sequence (P43220 24-463): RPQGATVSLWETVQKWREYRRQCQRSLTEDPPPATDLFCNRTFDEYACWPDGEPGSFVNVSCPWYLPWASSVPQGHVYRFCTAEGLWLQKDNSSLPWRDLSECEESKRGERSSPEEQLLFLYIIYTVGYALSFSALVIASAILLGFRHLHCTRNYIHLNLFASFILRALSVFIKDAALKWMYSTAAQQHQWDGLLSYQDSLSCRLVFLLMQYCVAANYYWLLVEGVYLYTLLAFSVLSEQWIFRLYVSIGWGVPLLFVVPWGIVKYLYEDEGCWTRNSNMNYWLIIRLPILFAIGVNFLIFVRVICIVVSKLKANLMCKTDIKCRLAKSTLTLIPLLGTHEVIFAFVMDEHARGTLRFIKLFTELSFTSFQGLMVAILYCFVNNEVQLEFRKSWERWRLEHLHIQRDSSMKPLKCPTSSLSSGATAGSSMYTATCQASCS

Row | SMILES | EC50 [1] | EC50 [2] | Emax [2] | EC50 [3] | Emax [3] | EC50 [4]
1 | CC[C@H](C)[C@H](NC(=O)[C@H](CC(C)C)NC(=O)[C@H](Cc1c[nH]c2ccccc12)NC(=O)[C@H](CCC(N)=O)NC(=O)[C@@H](NC(=O)[C@H](Cc1ccccc1)NC(=O)[C@H](C)NC(=O)[C@H](CCCCNC(=O)COCCOCCNC(=O)COCCOCCNC(=O)CC[C@H](NC(=O)CCCCCCCCCCCCCCCCCCC(=O)O)C(=O)O)NC(=O)[C@H](CCC(N)=O)NC(=O)[C@H](C)NC(=O)[C@@H](NC(=O)[C@H](CCCCN)NC(=O)[C@H](CC(=O)O)NC(=O)[C@H](CC(C)C)NC(=O)C(C)(C)NC(=O)[C@@H](NC(=O)[C@H](CO)NC(=O)[C@H](Cc1ccc(O)cc1)NC(=O)[C@H](CC(=O)O)NC(=O)[C@H](CO)NC(=O)[C@@H](NC(=O)[C@H](Cc1ccccc1)NC(=O)[C@@H](NC(=O)CNC(=O)[C@H](CCC(=O)O)NC(=O)CCNC(=O)C(C)(C)c1cc(F)cc(C(F)(F)F)c1)[C@@H](C)O)[C@@H](C)O)[C@@H](C)CC)[C@@H](C)CC)C(C)C)C(=O)N[C@@H](C)C(=O)NCC(=O)NCC(=O)N1CCC[C@H]1C(=O)N[C@@H](CO)C(=O)N[C@@H](CO)C(=O)NCC(=O)N[C@@H](C)C(=O)N1CCC[C@H]1C(=O)N1CCC[C@H]1C(=O)N1CCC[C@H]1C(=O)N[C@@H](CO)C(N)=O [Compound 119] ({X74-βAla}-EGTFTSDYSI[Aib]LDKIAQK([AEEA-AEEA-γGlu-C20 diacid])AFVQWLIAGGPSSGAPPPS-NH2) | > 1000 nM | 1 to 10 nM | 102% | 10 to 100 nM | 99% | > 1000 nM
2 | CC[C@H](CNC(=O)C(C)(C)c1cc(F)cc(C#N)c1)C(=O)N[C@@H](CCC(=O)O)C(=O)NCC(=O)N[C@H](C(=O)N[C@@H](Cc1ccccc1)C(=O)N[C@H](C(=O)N[C@@H](CO)C(=O)N[C@@H](CC(=O)O)C(=O)N[C@@H](Cc1ccc(O)cc1)C(=O)N[C@@H](CO)C(=O)N[C@H](C(=O)NC(C)(C)C(=O)N[C@@H](CC(C)C)C(=O)N[C@@H](CC(=O)O)C(=O)N[C@@H](CCCCN)C(=O)N[C@H](C(=O)N[C@@H](C)C(=O)N[C@@H](CCC(N)=O)C(=O)N[C@@H](CCCCNC(=O)COCCOCCNC(=O)COCCOCCNC(=O)CC[C@H](NC(=O)CCCCCCCCCCCCCCCCCCC(=O)O)C(=O)O)C(=O)N[C@@H](C)C(=O)N[C@@H](Cc1ccccc1)C(=O)N[C@H](C(=O)N[C@@H](CCC(N)=O)C(=O)N[C@@H](Cc1c[nH]c2ccccc12)C(=O)N[C@@H](CC(C)C)C(=O)N[C@H](C(=O)N[C@@H](C)C(=O)NCC(=O)NCC(=O)N1CCC[C@H]1C(=O)N[C@@H](CO)C(=O)N[C@@H](CO)C(=O)NCC(=O)N[C@@H](C)C(=O)N1CCC[C@H]1C(=O)N1CCC[C@H]1C(=O)N1CCC[C@H]1C(=O)N[C@@H](CO)C(N)=O)[C@@H](C)CC)C(C)C)[C@@H](C)CC)[C@@H](C)CC)[C@@H](C)O)[C@@H](C)O [Compound 148] ({Isobutyryl(2-(3-CN-5-F-Ph))}-[X70]EGTFTSDYSI[Aib]LDKIAQK([AEEA-AEEA-γGlu-C20 diacid])AFVQWLIAGGPSSGAPPPS-NH2) | > 1000 nM | 1 to 10 nM | 99% | 10 to 100 nM | 101% | > 1000 nM
3 | CC[C@H](C)[C@H](NC(=O)[C@H](CC(C)C)NC(=O)[C@H](Cc1c[nH]c2ccccc12)NC(=O)[C@H](CCC(N)=O)NC(=O)[C@@H](NC(=O)[C@H](Cc1ccccc1)NC(=O)[C@H](C)NC(=O)[C@H](CCCCNC(=O)COCCOCCNC(=O)COCCOCCNC(=O)CC[C@H](NC(=O)CCCCCCCCCCCCCCCCCCC(=O)O)C(=O)O)NC(=O)[C@H](CCC(N)=O)NC(=O)[C@H](C)NC(=O)[C@@H](NC(=O)[C@H](CCCCN)NC(=O)[C@H](CC(=O)O)NC(=O)[C@H](CC(C)C)NC(=O)C(C)(C)NC(=O)[C@@H](NC(=O)[C@H](CO)NC(=O)[C@H](Cc1ccc(O)cc1)NC(=O)[C@H](CC(=O)O)NC(=O)[C@H](CO)NC(=O)[C@@H](NC(=O)[C@H](Cc1ccccc1)NC(=O)[C@@H](NC(=O)CNC(=O)[C@H](CCC(=O)O)NC(=O)CCNC(=O)[C@@H](C)c1ccccc1)[C@@H](C)O)[C@@H](C)O)[C@@H](C)CC)[C@@H](C)CC)C(C)C)C(=O)N[C@@H](C)C(=O)NCC(=O)NCC(=O)N1CCC[C@H]1C(=O)N[C@@H](CO)C(=O)N[C@@H](CO)C(=O)NCC(=O)N[C@@H](C)C(=O)N1CCC[C@H]1C(=O)N1CCC[C@H]1C(=O)N1CCC[C@H]1C(=O)N[C@@H](CO)C(N)=O [Compound 211] ({X41-βAla}-EGTFTSDYSI[Aib]LDKIAQK([AEEA-AEEA-γGlu-C20 diacid])AFVQWLIAGGPSSGAPPPS-NH2) | > 1000 nM | 0.1 to 1 nM | 107% | 10 to 100 nM | 103% | > 1000 nM
4 | CC[C@H](C)[C@H](NC(=O)[C@H](CO)NC(=O)[C@H](Cc1ccc(O)cc1)NC(=O)[C@H](CC(=O)O)NC(=O)[C@H](CO)NC(=O)[C@@H](NC(=O)[C@H](Cc1ccccc1)NC(=O)[C@@H](NC(=O)CNC(=O)[C@H](CCC(=O)O)NC(=O)CCNC(=O)C1(c2ccccc2)CCC(=O)NC1)[C@@H](C)O)[C@@H](C)O)C(=O)N[C@@H](Cc1ccc(O)cc1)C(=O)N[C@@H](CC(C)C)C(=O)N[C@@H](CC(=O)O)C(=O)N[C@@H](CCCCN)C(=O)N[C@@H](CCC(N)=O)C(=O)N[C@@H](C)C(=O)N[C@@H](C)C(=O)NC(C)(C)C(=O)N[C@@H](CCC(=O)O)C(=O)N[C@@H](Cc1ccccc1)C(=O)N[C@H](C(=O)N[C@@H](CC(N)=O)C(=O)N[C@@H](Cc1c[nH]c2ccccc12)C(=O)N[C@@H](CC(C)C)C(=O)N[C@@H](CC(C)C)C(=O)N[C@@H](C)C(=O)NCC(=O)NCC(=O)N1CCC[C@H]1C(=O)N[C@@H](CO)C(=O)N[C@@H](CO)C(=O)NCC(=O)N[C@@H](C)C(=O)N1CCC[C@H]1C(=O)N1CCC[C@H]1C(=O)N1CCC[C@H]1C(=O)N[C@@H](CO)C(=O)N[C@@H](CCCCNC(=O)COCCOCCNC(=O)COCCOCCNC(=O)CC[C@H](NC(=O)CCCCCCCCCCCCCCCCCCC(=O)O)C(=O)O)C(N)=O)C(C)C (stereo partly drawn) [Compound 156] | > 1000 nM | 1 to 10 nM | 95% | 1 to 10 nM | 95% | > 1000 nM
5 | CC[C@H](C)[C@H](NC(=O)[C@H](CC(C)C)NC(=O)[C@H](Cc1c[nH]c2ccccc12)NC(=O)[C@H](CCC(N)=O)NC(=O)[C@@H](NC(=O)[C@H](Cc1ccccc1)NC(=O)[C@H](C)NC(=O)[C@H](CCCCNC(=O)COCCOCCNC(=O)COCCOCCNC(=O)CC[C@H](NC(=O)CCCCCCCCCCCCCCCCCCC(=O)O)C(=O)O)NC(=O)[C@H](CCC(N)=O)NC(=O)[C@H](C)NC(=O)[C@@H](NC(=O)[C@H](CCCCN)NC(=O)[C@H](CC(=O)O)NC(=O)[C@H](CC(C)C)NC(=O)C(C)(C)NC(=O)[C@@H](NC(=O)[C@H](CO)NC(=O)[C@H](Cc1ccc(O)cc1)NC(=O)[C@H](CC(=O)O)NC(=O)[C@H](CO)NC(=O)[C@@H](NC(=O)[C@H](Cc1ccccc1)NC(=O)[C@@H](NC(=O)CNC(=O)[C@](C)(Cc1nn[nH]n1)NC(=O)CCNC(=O)C(C)(C)c1cc(F)cc(C#N)c1)[C@@H](C)O)[C@@H](C)O)[C@@H](C)CC)[C@@H](C)CC)C(C)C)C(=O)N[C@@H](C)C(=O)NCC(=O)NCC(=O)N1CCC[C@H]1C(=O)N[C@@H](CO)C(=O)N[C@@H](CO)C(=O)NCC(=O)N[C@@H](C)C(=O)N1CCC[C@H]1C(=O)N1CCC[C@H]1C(=O)N1CCC[C@H]1C(=O)N[C@@H](CO)C(N)=O [Compound 126] ({Isobutyryl(2-(3-CN-5-F-Ph))-βAla}-[X75]GTFTSDYSI[Aib]LDKIAQK([AEEA-AEEA-γGlu-C20 diacid])AFVQWLIAGGPSSGAPPPS-NH2) | > 1000 nM | 100 to 1000 nM | 59% | 100 to 1000 nM | 97% | > 1000 nM
